{"source": "patent US20060094685A1", "about": "“Medicinal composition for drug-induced neuropathy” (priority 2002, published 2006)", "key": {"[1]": {"tested_on": "Vincristine-induced Sensory Neuropathy Mouse", "experiment": "Tail Flick Test using vincristine-induced sensory neuropathy mouse", "format": "in vivo, mouse (male ICR strain)", "conditions": "CDP-choline·Na 500 mg/kg oral once a day for 10 weeks", "experimental": "Experiment: Tail Flick Test Using Vincristine-induced Sensory Neuropathy Mouse (In Vivo) (1) Preparation of Mouse with Vincristine-induced Sensory Neuropathy Vincristine (0.05 mg/kg for the first time, 0.125 mg/kg for the second time and the following) dissolved in injectable physiological saline was intraperitoneally administered to male ICR strain mice (7-week-old, 10 per group) twice a week for 10 weeks to induce sensory neuropathy. (2) Administration of CDP-choline CDP-choline·Na was dissolved in distilled water, and oral administration thereof (500 mg/kg per dose) was started on the same day as vincristine once a day for 10 weeks. (3) Tail Flick Test A photothermic stimulation was given to the tail of mouse, and the reaction latency up to the motion of the tail upon sensing the heat was measured. The measurement results of the reaction latency of a control group, a vincristine administration group and a vincristine administration group with administration of CDP-choline (500 mg/kg) are shown in FIG. 1."}, "[2]": {"tested_on": "Mice With Acrylamide Induced Sensory Neuropathy", "experiment": "Tail Flick Test using mice with acrylamide-induced sensory neuropathy", "format": "in vivo, mouse (male ICR strain)", "conditions": "CDP-choline·Na 100 mg/kg oral once a day for 1 week", "experimental": "Experiment: Tail Flick Test Using Mice With Acrylamide Induced Sensory Neuropathy (In Vivo) (1) Preparation of Mouse With Acrylamide-induced Sensory Neuropathy Acrylamide (2.5 mg/mice) dissolved in injectable physiological saline was intraperitoneally administered to male ICR strain mice (7-week-old, 10 per group) 5 times a week for 1 week to induce sensory neuropathy. (2) Administration of CDP-choline CDP-choline·Na was dissolved in distilled water, and oral administration thereof (100 mg/kg per dose) was started on the same day as acrylamide once a day for 1 week. (3) Tail Flick Test A photothermic stimulation was given to the tail of mouse, and the reaction latency up to the motion of the tail upon sensing the heat was measured. The measurement results of the reaction latency of a control group, an acrylamide administration group and an acrylamide administration group with administration of CDP-choline (100 mg/kg) are shown in FIG. 2."}}, "note": "Structures can show the parent of a compound that is named as a salt."}
{"smiles": "C[N+](C)(C)CCOP(=O)(O)OP(=O)([O-])OC[C@H]1O[C@@H](n2ccc(N)nc2=O)[C@H](O)[C@@H]1O", "note": "[CDP-choline, cytidine 5′-diphosphocholine-monosodium salt]", "values": [{"measurement": "suppression of vincristine-induced sensory neuropathy (hyperesthesia-like symptom)", "setting": "[1]; started on the same day as vincristine i.p. twice a week, 10 mice per group", "value": "almost completely suppressed"}, {"measurement": "reaction latency in Tail Flick Test", "setting": "[1]; vincristine-treated mice, compared to control group, FIG. 1", "value": "of the same level as the control group"}, {"measurement": "suppression of acrylamide-induced sensory neuropathy (hyperesthesia-like symptom)", "setting": "[2]; started on the same day as acrylamide i.p. 5 times a week, 10 mice per group", "value": "almost completely suppressed"}, {"measurement": "reaction latency in Tail Flick Test", "setting": "[2]; acrylamide-treated mice, compared to control group, FIG. 2", "value": "of the same level as the control group"}]}
